Laboratory results from patent US20230295260A1, “GLP RECEPTOR AGONISTS” (HEPTARES THERAPEUTICS LIMITED, priority 2020, published 2023).
Read-outs that look alike come from different tables or passages of the source. Starred links: 1 amine or outer side, 2 acyl side, 3 side chain; linkers in the order of their positions; H or OH if unused. Non-standard residues stand in square brackets, D forms with d. Residues, ends and D or L forms follow the SMILES beside them. Groups on a side chain read outwards from the residue. *: point of attachment. Malonyl(2,2-Me2,histaminyl) = CC(C)(C(=O)NCCc1cnc[nH]1)C(=O)*; Ala(1H-tetrazol-5-yl) = N[C@@H](Cc1nnn[nH]1)C(=O)O; C18 diacid = O=C(O)CCCCCCCCCCCCCCCCC(=O)*; γGlu = O=C(O)[C@H](CCC(=O)[*:2])N[*:1]; Lauroyl = CCCCCCCCCCCC(=O)*; Nle = CCCC[C@H](N)C(=O)O; AEEA = NCCOCCOCC(=O)O; Aib = CC(C)(N)C(=O)O; Alloc = C=CCOC(=O)*; βAla = NCCC(=O)O

Columns and labels:
human GLP1 receptor = molecular target: T1, human GLP1 receptor (Homo sapiens, UniProt P43220); assay: cAMP accumulation assay (HTRF), functional agonism of human GLP1 receptor in HEK cells; assay type: cell-based; details: for EC50: read-out: Human GLP-1R agonist cAMP pEC50 (converted)
T1 construct: expressed in transfected cells; host or cells: HEK cells, BacMam virus transduction
T1 sequence (P43220 24-463): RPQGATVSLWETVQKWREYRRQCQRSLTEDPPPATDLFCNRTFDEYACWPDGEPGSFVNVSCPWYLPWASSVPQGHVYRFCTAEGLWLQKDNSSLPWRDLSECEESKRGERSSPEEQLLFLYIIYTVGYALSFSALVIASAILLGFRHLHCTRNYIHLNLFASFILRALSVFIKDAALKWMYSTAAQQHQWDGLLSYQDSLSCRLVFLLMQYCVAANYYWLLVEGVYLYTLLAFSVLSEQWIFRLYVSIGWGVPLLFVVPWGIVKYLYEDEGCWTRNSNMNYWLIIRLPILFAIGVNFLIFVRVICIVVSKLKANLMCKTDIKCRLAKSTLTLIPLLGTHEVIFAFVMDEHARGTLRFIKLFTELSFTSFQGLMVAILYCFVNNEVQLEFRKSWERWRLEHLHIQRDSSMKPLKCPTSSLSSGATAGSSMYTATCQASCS

mouse GLP1 receptor = molecular target: T2, mouse GLP1 receptor (Mus musculus, UniProt O35659); assay: cAMP accumulation assay (HTRF), functional agonism of mouse GLP1 receptor in HEK cells; assay type: cell-based; details: HEK cells transiently transfected, 45 min 37° C.
T2 construct: expressed in transfected cells; host or cells: HEK cells, transient transfection with GeneJuice
T2 sequence (O35659 22-463): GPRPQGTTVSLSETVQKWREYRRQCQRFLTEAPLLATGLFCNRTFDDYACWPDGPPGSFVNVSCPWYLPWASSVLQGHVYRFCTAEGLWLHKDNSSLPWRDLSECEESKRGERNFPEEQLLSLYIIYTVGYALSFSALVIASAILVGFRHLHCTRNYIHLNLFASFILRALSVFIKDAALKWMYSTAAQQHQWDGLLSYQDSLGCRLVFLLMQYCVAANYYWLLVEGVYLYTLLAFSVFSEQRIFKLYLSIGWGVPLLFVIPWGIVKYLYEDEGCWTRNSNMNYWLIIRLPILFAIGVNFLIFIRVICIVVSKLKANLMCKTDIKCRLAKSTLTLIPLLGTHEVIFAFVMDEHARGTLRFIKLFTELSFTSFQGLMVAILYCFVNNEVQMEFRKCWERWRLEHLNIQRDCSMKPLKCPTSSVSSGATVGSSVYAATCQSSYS

mouse GLP2 receptor = molecular target: T3, mouse GLP2 receptor (Mus musculus, UniProt Q5IXF8); assay: cAMP accumulation assay (HTRF), functional agonism of mouse GLP2 receptor in HEK cells; assay type: cell-based; details: HEK cells transiently transfected, 45 min 37° C.
T3 construct: expressed in transfected cells; host or cells: HEK cells, transient transfection with GeneJuice
T3 sequence (Q5IXF8 1-512): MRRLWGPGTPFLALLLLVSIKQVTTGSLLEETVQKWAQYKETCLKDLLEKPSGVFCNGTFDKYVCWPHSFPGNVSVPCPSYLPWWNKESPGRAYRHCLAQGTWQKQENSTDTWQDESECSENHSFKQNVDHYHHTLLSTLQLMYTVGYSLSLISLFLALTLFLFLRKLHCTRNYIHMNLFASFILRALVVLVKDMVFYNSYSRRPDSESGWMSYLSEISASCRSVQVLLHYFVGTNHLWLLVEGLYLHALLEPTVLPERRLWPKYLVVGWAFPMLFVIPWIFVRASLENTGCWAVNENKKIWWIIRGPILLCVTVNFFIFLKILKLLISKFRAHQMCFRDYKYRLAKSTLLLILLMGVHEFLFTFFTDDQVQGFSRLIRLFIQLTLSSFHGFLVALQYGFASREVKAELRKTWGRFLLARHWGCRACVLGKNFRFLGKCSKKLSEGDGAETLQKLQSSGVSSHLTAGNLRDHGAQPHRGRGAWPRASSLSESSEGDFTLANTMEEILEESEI

human GLP2 receptor = molecular target: T4, human GLP2 receptor (Homo sapiens, UniProt O95838); assay: cAMP accumulation assay (HTRF), functional agonism of human GLP2 receptor in HEK cells; details: for Emax: HEK293, read-out: Human GLP-2R agonist cAMP Emax;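 as to all read-outs here: HEK cells transduced via BacMam to express human GLP2 receptor, agonist-stimulated cAMP measured by HTRF after 45 min at 37 °C in HBSS with 0.5 mM IBMX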
T4 sequence (O95838 1-553): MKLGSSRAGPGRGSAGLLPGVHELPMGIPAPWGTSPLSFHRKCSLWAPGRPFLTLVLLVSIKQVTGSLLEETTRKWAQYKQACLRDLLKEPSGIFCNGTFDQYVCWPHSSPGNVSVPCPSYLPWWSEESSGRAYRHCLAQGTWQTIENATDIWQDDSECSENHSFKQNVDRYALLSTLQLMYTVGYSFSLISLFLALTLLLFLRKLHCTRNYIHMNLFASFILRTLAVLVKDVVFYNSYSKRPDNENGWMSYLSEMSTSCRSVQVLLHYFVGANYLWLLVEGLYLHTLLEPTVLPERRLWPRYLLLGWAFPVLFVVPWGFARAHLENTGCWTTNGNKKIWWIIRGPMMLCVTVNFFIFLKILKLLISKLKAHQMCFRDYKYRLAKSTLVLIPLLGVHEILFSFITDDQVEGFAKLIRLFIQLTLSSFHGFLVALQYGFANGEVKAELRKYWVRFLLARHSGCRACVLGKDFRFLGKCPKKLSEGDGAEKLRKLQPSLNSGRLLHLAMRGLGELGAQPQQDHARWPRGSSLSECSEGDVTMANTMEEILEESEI

[1] = HEK293, HEK cells, human GLP1 receptor BacMam, 45 min 37° C., read-out: Human GLP-1R agonist cAMP Emax
[2] = HEK cells, human GLP1 receptor BacMam, 45 min 37° C.

Compound	Emax (human GLP1 receptor; [1])	EC50 (human GLP1 receptor; [2])	Emax (mouse GLP1 receptor; HEK293, read-out: Mouse GLP-1 R agonist cAMP Emax)	EC50 (mouse GLP1 receptor; read-out: Mouse GLP-1 R agonist cAMP pEC50 (converted))	Emax (mouse GLP2 receptor; HEK293, read-out: Mouse GLP-2R agonist cAMP Emax)	EC50 (mouse GLP2 receptor; read-out: Mouse GLP-2R agonist cAMP pEC50 (converted))	EC50 (human GLP2 receptor)	Emax (human GLP2 receptor)	Emax (human GLP1 receptor; HEK293, read-out: Human GLP-1R agonist cAMP Emax)	Human GLP-1R agonist cAMP Emax (human GLP1 receptor)	Human GLP-2R agonist cAMP Emax (human GLP2 receptor; HEK cells, human GLP2 receptor BacMam, 45 min 37° C.)
C=CCOC(=O)NCCCC[C@H](NC(=O)[C@H](CC(C)C)NC(=O)[C@H](CC(=O)O)NC(=O)[C@H](CC(C)C)NC(=O)[C@@H](NC(=O)[C@@H](NC(=O)[C@@H](Cc1ccccc1)NC(=O)[C@H](CCCC)NC(=O)[C@H](CCC(=O)O)NC(=O)[C@H](CC(=O)O)NC(=O)[C@H](CO)NC(=O)[C@H](Cc1ccccc1)NC(=O)[C@H](CO)NC(=O)CNC(=O)[C@H](Cc1nn[nH]n1)NC(=O)C(C)(C)C(=O)NCCc1c[nH]cn1)[C@@H](C)O)[C@@H](C)CC)C(=O)N[C@@H](C)C(=O)N[C@@H](C)C(=O)N[C@@H](CCCCN)C(=O)N[C@@H](CC(=O)O)C(=O)N[C@@H](Cc1ccccc1)C(=O)N[C@H](C(=O)N[C@@H](CC(N)=O)C(=O)N[C@@H](Cc1c[nH]c2ccccc12)C(=O)N[C@@H](CC(C)C)C(=O)N[C@H](C(=O)N[C@@H](CCC(N)=O)C(=O)N[C@H](C(=O)N[C@@H](CCCCN)C(=O)N[C@H](C(=O)N[C@H](C(=O)N[C@@H](Cc1ccccc1)C(N)=O)[C@@H](C)O)[C@@H](C)CC)[C@@H](C)O)[C@@H](C)CC)[C@@H](C)CC [Example 2] ({Malonyl(2,2-Me2,histaminyl)}-[Ala(1H-tetrazol-5-yl)]GSFSDE[Nle][dF]TILDLK(Alloc)AAKDFINWLIQTKITF-NH2)	94.7%	7.94 nM	96.1%	25.1 nM	106%	3.98 nM	0.0316 nM	101%			
CCCCCCCCCCCC(=O)NCCC(=O)NCCCC[C@H](NC(=O)[C@H](CC(N)=O)NC(=O)[C@H](CC(=O)O)NC(=O)[C@H](CC(C)C)NC(=O)[C@@H](NC(=O)[C@@H](NC(=O)[C@@H](Cc1ccccc1)NC(=O)[C@H](CCCC)NC(=O)[C@H](CCC(=O)O)NC(=O)[C@H](CC(=O)O)NC(=O)[C@H](CO)NC(=O)[C@H](Cc1ccccc1)NC(=O)[C@H](CO)NC(=O)[C@@H](C)NC(=O)[C@H](Cc1nn[nH]n1)NC(=O)C(C)(C)C(=O)NCCc1c[nH]cn1)[C@@H](C)O)[C@@H](C)CC)C(=O)NC(C)(C)C(=O)N[C@@H](C)C(=O)N[C@@H](CCCCN)C(=O)N[C@@H](CC(=O)O)C(=O)N[C@@H](Cc1ccccc1)C(=O)N[C@H](C(=O)N[C@@H](CC(N)=O)C(=O)N[C@@H](Cc1c[nH]c2ccccc12)C(=O)N[C@@H](CC(C)C)C(=O)N[C@H](C(=O)N[C@@H](CCC(N)=O)C(=O)N[C@H](C(=O)N[C@@H](CCCCN)C(=O)N[C@H](C(=O)N[C@H](C(=O)N[C@@H](Cc1ccccc1)C(N)=O)[C@@H](C)O)[C@@H](C)CC)[C@@H](C)O)[C@@H](C)CC)[C@@H](C)CC [Example 21] ({Malonyl(2,2-Me2,histaminyl)}-[Ala(1H-tetrazol-5-yl)][dA]SFSDE[Nle][dF]TILDNK([βAla-Lauroyl])[Aib]AKDFINWLIQTKITF-NH2; C-terminus assumed)								99.7%	91.5%		
CCCC[C@H](NC(=O)[C@H](CCC(=O)O)NC(=O)[C@H](CC(=O)O)NC(=O)[C@H](CO)NC(=O)[C@H](Cc1ccccc1)NC(=O)[C@H](CO)NC(=O)CNC(=O)[C@H](Cc1nn[nH]n1)NC(=O)C(C)(C)C(=O)NCCc1c[nH]cn1)C(=O)N[C@H](Cc1ccccc1)C(=O)N[C@H](C(=O)N[C@H](C(=O)N[C@@H](CC(C)C)C(=O)N[C@@H](CC(=O)O)C(=O)N[C@@H](CC(C)C)C(=O)N[C@@H](CCCCNC(=O)CC[C@H](NC(=O)COCCOCCNC(=O)COCCOCCNC(=O)CCCCCCCCCCCCCCCCC(=O)O)C(=O)O)C(=O)N[C@@H](C)C(=O)N[C@@H](C)C(=O)N[C@@H](CCCCN)C(=O)N[C@@H](CC(=O)O)C(=O)N[C@@H](Cc1ccccc1)C(=O)N[C@H](C(=O)N[C@@H](CC(N)=O)C(=O)N[C@@H](Cc1c[nH]c2ccccc12)C(=O)N[C@@H](CC(C)C)C(=O)N[C@H](C(=O)N[C@@H](CCC(N)=O)C(=O)N[C@H](C(=O)N[C@@H](CCCCN)C(=O)N[C@H](C(=O)N[C@H](C(=O)N[C@@H](CC(=O)O)C(N)=O)[C@@H](C)O)[C@@H](C)CC)[C@@H](C)O)[C@@H](C)CC)[C@@H](C)CC)[C@@H](C)CC)[C@@H](C)O [Example 22] ({Malonyl(2,2-Me2,histaminyl)}-[Ala(1H-tetrazol-5-yl)]GSFSDE[Nle][dF]TILDLK([γGlu-AEEA-AEEA-C18 diacid])AAKDFINWLIQTKITD-NH2)	87.6%	3.16 nM					0.0158 nM	101%			
CCCC[C@H](NC(=O)[C@H](CCC(=O)O)NC(=O)[C@H](CC(=O)O)NC(=O)[C@H](CO)NC(=O)[C@H](Cc1ccccc1)NC(=O)[C@H](CO)NC(=O)CNC(=O)[C@H](Cc1nn[nH]n1)NC(=O)C(C)(C)C(=O)NCCc1c[nH]cn1)C(=O)N[C@H](Cc1ccccc1)C(=O)N[C@H](C(=O)N[C@H](C(=O)N[C@@H](CC(C)C)C(=O)N[C@@H](CC(=O)O)C(=O)N[C@@H](CC(C)C)C(=O)N[C@@H](CCCCNC(=O)CC[C@H](NC(=O)COCCOCCNC(=O)COCCOCCNC(=O)CCCCCCCCCCCCCCCCC(=O)O)C(=O)O)C(=O)N[C@@H](C)C(=O)N[C@@H](C)C(=O)N[C@@H](CCCCN)C(=O)N[C@@H](CC(=O)O)C(=O)N[C@@H](Cc1ccccc1)C(=O)N[C@H](C(=O)N[C@@H](CC(N)=O)C(=O)N[C@@H](Cc1c[nH]c2ccccc12)C(=O)N[C@@H](CC(C)C)C(=O)N[C@H](C(=O)N[C@@H](CCC(N)=O)C(=O)N[C@H](C(=O)N[C@@H](CCCCN)C(=O)N[C@H](C(=O)N[C@H](C(=O)N[C@@H](Cc1ccccc1)C(N)=O)[C@@H](C)O)[C@@H](C)CC)[C@@H](C)O)[C@@H](C)CC)[C@@H](C)CC)[C@@H](C)CC)[C@@H](C)O [Example 23] ({Malonyl(2,2-Me2,histaminyl)}-[Ala(1H-tetrazol-5-yl)]GSFSDE[Nle][dF]TILDLK([γGlu-AEEA-AEEA-C18 diacid])AAKDFINWLIQTKITF-NH2)	89.8%	12.6 nM					0.0316 nM	103%			
Exendin-4 [reference compound]										99.7	1.6
